# Source: PMC12124364 (Science Advances, 2025)
# Assays:
# HIV-1 K101P mutation = details: cited from earlier work
# HIV-1 K103N mutation = details: cited from earlier work
# [1] = test system: HIV-1 GH9 (K101P/K103N/V108I); details: cited from earlier work
# [2] = Cytotoxicity in TZM-bl cells; format: cell-based; details: human
# [3] = test system: HIV-1 GH9 (K101P/K103N/V108I); assay: Anti-HIV-1 activity against triple-mutant strain GH9 in TZM-bl cells; format: cell-based; details: Human immunodeficiency virus 1, TZM-bl, read-out: EC50 GH9
# [4] = test system: HIV-1 p1579 (E138G/H221Y/F227L/M230L); assay: Anti-HIV-1 activity against NNRTI-resistant strain p1579 in TZM-bl cells; format: cell-based; details: Human immunodeficiency virus 1, TZM-bl, read-out: EC50 p1579
# [5] = test system: HIV-1 p5375 (A98G/K101E/E138K/Y181C); assay: Anti-HIV-1 activity against NNRTI-resistant strain p5375 in TZM-bl cells; format: cell-based; details: Human immunodeficiency virus 1, TZM-bl, read-out: EC50 p5375
# [6] = test system: HIV-1 p5735 (K101E/Y181V); assay: Anti-HIV-1 activity against NNRTI-resistant strain p5735 in TZM-bl cells; format: cell-based; details: Human immunodeficiency virus 1, TZM-bl, read-out: EC50 p5735
# HIV-1 5e2res strain = assay: Anti-HIV activity against selected 5e2res strain in MT-4 cells; format: cell-based; details: for EC50: Human immunodeficiency virus 1, MT4, read-out: EC50 5e2res strain; for RF (resistance fold), 5e2res strain: EC50(mutant strain)/EC50(IIIB strain)
# HIV-1 5i3res strain = assay: Anti-HIV activity against selected 5i3res strain in MT-4 cells; format: cell-based; details: for EC50: Human immunodeficiency virus 1, MT4, read-out: EC50 5i3res strain
# HIV-1 WT strain (IIIB) = assay: Anti-HIV activity against HIV-1 IIIB in MT-4 cells; format: cell-based; details: Human immunodeficiency virus 1, IIIB, MT4, read-out: EC50 IIIB strain
# [7] = test system: HIV-1 p1833 (A98G/K101E/Y181C/G190A); assay: Anti-HIV-1 activity against NNRTI-resistant strain p1833 in TZM-bl cells; format: cell-based; details: Human immunodeficiency virus 1, TZM-bl, read-out: EC50 p1833
# [8] = test system: CYP1A2, CYP2C9, CYP2C19, CYP2D6 (range over isozymes); assay: Cytochrome P450 inhibition assay, ranges over isozymes; format: in vitro ADME; details: human, human liver microsomes
structure (smiles),measurement,setting,value
"O=C1Nc2ccc(Cl)cc2[C@@](C#CC2CC2)(C(F)(F)F)O1 [EFV, efavirenz]",reduction in efficacy by K101P mutation alone,HIV-1 K101P mutation,> 50 fold
same,reduction in susceptibility by K103N mutation,HIV-1 K103N mutation,about 20 fold
same,resistance conferred by triple-mutant strain GH9,[1],"up to 12,931 fold"
"Cc1cc(/C=C/C#N)cc(C)c1Nc1ccnc(Nc2ccc(C#N)cc2)n1 [RPV, rilpivirine]",CC50 at 4 days,[2],> 54.5 µM
same,EC50,[3],1710 ± 339 nM
same,EC50,[4],1.26 ± 0.38 nM
same,EC50,[5],1.07 ± 0.3 nM
same,EC50,[6],151 ± 32 nM
same,EC50,HIV-1 5e2res strain,16.6 nM
same,EC50,HIV-1 5i3res strain,74.6 nM
same,reduction in efficacy by K101P mutation alone,HIV-1 K101P mutation,up to 243 fold
same,resistance conferred by triple-mutant strain GH9,[1],> 162 fold
"Cc1ccnc2c1NC(=O)c1cccnc1N2C1CC1 [NVP, nevirapine]",EC50 5e2res strain,HIV-1 5e2res strain; MT-4 cells,completely inactive
same,EC50 5i3res strain,HIV-1 5i3res strain; MT-4 cells,completely inactive
same,reduction in susceptibility by K103N mutation,HIV-1 K103N mutation,~50 fold
"O=c1[nH]cnc2c1ncn2[C@H]1CC[C@@H](CO)O1 [ddI, didanosine]",EC50,HIV-1 WT strain (IIIB),19700 nM
same,EC50,HIV-1 5i3res strain,8930 nM
"Nc1ccn([C@H]2CC[C@@H](CO)O2)c(=O)n1 [ddC, zalcitabine]",EC50,HIV-1 WT strain (IIIB),890 nM
same,"RF (resistance fold), 5e2res strain",HIV-1 5e2res strain,0.8
same,EC50,HIV-1 5e2res strain,690 nM
"Cc1cc(C#N)cc(C)c1Oc1nc(Nc2ccc(C#N)cc2)nc(N)c1Br [ETR, etravirine]",EC50,[3],104 ± 38.2 nM
same,EC50,[4],74.9 ± 18.9 nM
same,EC50,[5],37.6 ± 8.06 nM
same,EC50,[7],11.1 ± 2.76 nM
same,EC50,[6],14.3 ± 5.07 nM
same,IC50 at 10 min,[8],0.277 to 12 µM
same,reduction in efficacy by K101P mutation alone,HIV-1 K101P mutation,about five-fold
"Cc1cn([C@H]2C[C@H](N=[N+]=[N-])[C@@H](CO)O2)c(=O)[nH]c1=O [AZT, zidovudine]",EC50,HIV-1 WT strain (IIIB),40.9 nM
same,"RF (resistance fold), 5e2res strain",HIV-1 5e2res strain,1.3
same,EC50,HIV-1 5e2res strain,51.9 nM
same,"RF (resistance fold), 5i3res strain",HIV-1 5i3res strain; EC50(mutant strain)/EC50(IIIB strain),1.2
same,EC50,HIV-1 5i3res strain,48.9 nM
